{"source": "patent US20180049425A1", "about": "“Bait Composition” (priority 2016, published 2018)", "key": {"feral pigs [1]": {"system": "feral pigs", "conditions": "bait containing 0.09% warfarin by weight of the bait; Saunders et al.; cited from earlier work"}, "feral pigs [2]": {"system": "feral pigs", "conditions": "bait containing 0.13% warfarin by weight of the bait; McIlroy et al.; cited from earlier work"}, "feral hogs": {"system": "feral hogs", "assay": "studies using the instant feral hog control system with low dose warfarin bait", "assay_type": "in vivo, Sus scrofa", "from_the_text": "As to particular studies, death of the feral hogs (2) occurred within not greater than about five days following exposure to the bait (3)."}, "[3]": {"conditions": "bait with about 0.005% warfarin by weight of the bait"}, "[4]": {"conditions": "bait with about 0.01% warfarin by weight of the bait"}}, "data": [{"smiles": "CC(=O)CC(c1ccccc1)c1c(O)c2ccccc2oc1=O", "note": "(stereo not drawn) [warfarin]", "values": [{"measurement": "first death recorded after bait distribution", "setting": "feral pigs [1]", "value": "six"}, {"measurement": "feral pigs dying", "setting": "feral pigs [2]", "value": "30 of 32"}, {"measurement": "time of dying after bait distribution (mean±s.e.)", "setting": "feral pigs [2]", "value": "9.7 ± 0.4", "unit": "days"}, {"measurement": "death of the feral hogs following exposure to the bait", "setting": "feral hogs; [3]", "value": "ten"}, {"measurement": "mortality rate", "setting": "feral hogs; [3]", "value": 100, "unit": "%"}, {"measurement": "death of the feral hogs following exposure to the bait, particular studies", "setting": "feral hogs; [3]", "value": "five"}, {"measurement": "death of the feral hogs following exposure to the bait", "setting": "feral hogs; [4]", "value": "ten"}, {"measurement": "mortality rate", "setting": "feral hogs; [4]", "value": 100, "unit": "%"}, {"measurement": "death of the feral hogs following exposure to the bait, particular studies", "setting": "feral hogs; [4]", "value": "five"}]}]}
